{"source": "patent US12115153B2", "about": "“Methods of treating cancer” (Kartos Therapeutics, Inc., priority 2018, dated 2024)", "key": {"[1]": {"system": "p53 wild type AML cell lines", "assay": "Apoptosis in AML cell lines (FIG. 10)", "assay_type": "cell-based"}, "[2]": {"system": "SJSA-1 (MDM2 amplified) tumor", "assay": "SJSA-1 xenograft study", "assay_type": "in vivo, female athymic nude mice", "protocol": "(§1) All animal experimental procedures were conducted in accordance with Association for Assessment and Accreditation of Laboratory Animal Care standards. All studies utilized 4- to 6-week-old female athymic nude mice (Harlan Laboratories, Hsd: Athymic Nude-Foxn1nu). The mice were housed five per filter-capped cage in sterile housing in an environmentally controlled room (temperature 23±2° C., relative humidity 50±20%) on a 12-hour light/dark cycle. The mice were fed commercial rodent chow (Harlan Laboratories, #2920X) and received filter-purified tap water ad libitum. The mice were individually identified by microchips (Bio Medic Data Systems) that were implanted subcutaneously at least 2 days before the study.\nTreatment began when tumors were established and approximately 200 mm3. […] Tumor dimensions were assessed twice weekly with a Pro-Max electronic digital caliper (Sylvac) and tumor volume was calculated using the formula: length×width×height and expressed as mm3. Data are expressed as mean±SEM. […] Analysis of p21 mRNA at the end of the xenograft studies was performed as described for the p21 pharmacodynamic assay."}, "[3]": {"system": "p53 wild-type tumor cell lines", "assay": "Cell viability assay (72 hours), panel of tumor cell lines", "assay_type": "cell-based", "from_the_text": "SJSA-1, HCT116, ACHN, NCI-H460, MOLM-13, RKO, MCF7, 22RV1, HT-29, PC-3, NCI-H82, NCI-SNU1, and MG-63 cells were purchased from the ATCC, and have since been authenticated by short tandem repeat analysis (PowerPlex 18D Kit from Promega). NCI-H2452, SW982, C32, SK-HEP-1, A375, RT4, RPMI-2650, MDA-MB-134-VI, NCI-H2347, and A427 cells were purchased from ATCC and used within 6 months. IGR-1 and CML-T1 cells were purchased from German Collection of Microorganisms and Cell Cultures (DSMZ) and used within 6 months. A375sq2 cells were generated by in vivo passaging A375 cells in mice. HCT116 p53^−/− cells were obtained from Bert Vogelstein. […]\nCellTiter-Glo Luminescent Cell Viability (Promega) or ATPlite 1 step Luminescent (PerkinElmer) assay kits were used to determine the numbers of viable cells. Luminescence was measured with an EnVision Multilabel Reader (PerkinElmer) for each cell line at time zero (V0) before the addition of compounds, as well as after 72 hours of compound treatment. Growth inhibition (GI) was calculated on a 200-point scale according to the following equations, where V72 was luminescence of DMSO control at 72 hours and T72 was luminescence of the compound-treated sample: if T72>V0, then GI=100×(1−((T72−V0)/(V72−V0))); if T72<V0, then GI=100×(1−((T72−V0)/V0)). […]"}, "p21 mRNA": {"system": "p21 mRNA", "assay": "p21 mRNA in tumors harvested at the end of xenograft studies (qRT-PCR)", "assay_type": "in vivo, female athymic nude mice", "details": "FIG. 6", "protocol": "Tumor cells (SJSA-1: 5×10^6 cells, HCT 116: 2×10^6 cells) were injected subcutaneously into the flank of female athymic nude mice in a 2:1 ratio of cells to Matrigel (BD Bioscience). […] Tumors were harvested after 1, 2, 4, 8, and 24 hours after dose (SJSA-1) or 6 hours after dose (HCT116) and snap-frozen in liquid nitrogen. Total RNA was purified using Qiagen RNeasy 96 kit (Qiagen). The levels of p21 and the housekeeping gene GAPDH were assayed from total RNA from each sample in technical duplicates by qRTPCR. The qRT-PCR reactions were assayed on the Applied Biosystems Prism 7900HT instrument and the data were analyzed with Applied Biosystems SDS2.2 software. The SDS2.2 software calculated the p21 and GAPDH copy number in each of the tumor samples. The copy number of p21 was normalized to the copy number of the GAPDH, and the fold increase of normalized p21 levels were calculated relative to vehicle control for each sample. For MIC-1, plasma was collected at the time of sacrifice and MIC-1 was detected using R&D Quantikine Human MIC-1 Immunoassay (cat no. DGD150) following the manufacturer's instructions. The ELISA assay was read using a Spectramax M5 microplate reader using Softmax pro v4 (Molecular Devices). […]"}, "A375sq2 (BRAF) tumor": {"system": "A375sq2 (BRAF) tumor", "assay": "A375sq2 xenograft study", "assay_type": "in vivo, female athymic nude mice", "protocol": "as §1\n(§2) SJSA-1 cells (5×10^6 cells with Matrigel at a ratio of 2:1), NCI-H460 cells (5×10^6 cells with Matrigel at a ratio of 2:1), A375sq2 (5×10^6 cells with Matrigel at a ratio of 2:1), or HCT116 ([…]) were injected subcutaneously in the flank of female athymic nude mice (n=10/group). Treatment began when tumors were established and approximately 200 mm3. […] Tumor dimensions were assessed twice weekly with a Pro-Max electronic digital caliper (Sylvac) and tumor volume was calculated using the formula: length×width×height and expressed as mm3. Data are expressed as mean±SEM. Body weight was recorded twice weekly to assess tolerability (data not shown). […]"}, "AML tumor": {"system": "AML tumor", "assay": "AML tumor growth (FIG. 7, FIG. 8)", "assay_type": "in vivo, mouse"}, "HCT116 (KRAS) tumor": {"system": "HCT116 (KRAS) tumor", "assay": "HCT116 xenograft study", "assay_type": "in vivo, female athymic nude mice", "protocol": "as §1\nSJSA-1 cells (5×10^6 cells with Matrigel at a ratio of 2:1), NCI-H460 cells (5×10^6 cells with Matrigel at a ratio of 2:1), A375sq2 (5×10^6 cells with Matrigel at a ratio of 2:1), or HCT116 ([…]) were injected subcutaneously in the flank of female athymic nude mice (n=10/group). Treatment began when tumors were established and approximately 200 mm3. The compound of Formula (I) was administered once per day by oral gavage. Tumor dimensions were assessed twice weekly with a Pro-Max electronic digital caliper (Sylvac) and tumor volume was calculated using the formula: length×width×height and expressed as mm3. Data are expressed as mean±SEM. Body weight was recorded twice weekly to assess tolerability (data not shown). Analysis of p21 mRNA at the end of the xenograft studies was performed as described for the p21 pharmacodynamic assay."}, "cell cycle": {"system": "cell cycle", "assay": "Cell cycle (FIG. 9)", "assay_type": "cell-based"}, "[4]": {"system": "tumor cell lines harboring wild-type p53", "assay": "Xenograft models of different genetic backgrounds and tumor types (all models)", "assay_type": "in vivo, female athymic nude mice", "details": "daily oral administration, FIGS. 3-5", "protocol": "as §1, §2"}}}
{"smiles": "CC(C)[C@@H](CS(=O)(=O)C(C)C)N1C(=O)[C@@](C)(CC(=O)O)C[C@H](c2cccc(Cl)c2)[C@H]1c1ccc(Cl)cc1", "note": "[compound of Formula (I), 2-((3R,5R,6S)-5-(3-chlorophenyl)-6-(4-chlorophenyl)-1-((S)-1-(isopropylsulfonyl)-3-methylbutan-2-yl)-3-methyl-2-oxopiperidin-3-yl) acetic acid]", "values": [{"measurement": "apoptosis", "setting": "[1]", "result": "induces apoptosis"}, {"measurement": "tumor regrowth after treatment stopped", "setting": "[2]; 75 mg/kg group, treatment stopped after day 25, observed additional 50 days", "result": "no detectable SJSA-1 tumor regrowth"}, {"measurement": "ED50", "setting": "[2]; Mus musculus, SJSA-1, po, once per day by oral gavage, read-out: ED50, in vivo tumor growth", "result": 9, "unit": "mg/kg"}, {"measurement": "tumors completely regressed and undetectable", "setting": "[2]; highest dose group of 75 mg/kg, after 10 days of treatment", "result": "10 of 10"}, {"measurement": "IC50", "setting": "[3]; 23 p53 wild-type cell lines, 72-hour period, read-out: IC50, inhibition of cell growth", "result": "100 to 1000", "unit": "nM"}, {"measurement": "proliferation of p53 WT tumor cells", "setting": "[3]; FIG. 2", "result": "inhibits the proliferation of p53 WT tumor cells"}, {"measurement": "induction of p21 mRNA compared with vehicle-treated tumors", "setting": "p21 mRNA", "result": "dose- and time-dependent induction of p21 mRNA"}, {"measurement": "ED50", "setting": "A375sq2 (BRAF) tumor; Mus musculus, A375-SQ2, once per day by oral gavage, read-out: ED50, in vivo tumor growth", "result": 18, "unit": "mg/kg"}, {"measurement": "TGI", "setting": "A375sq2 (BRAF) tumor; mouse, in vivo", "result": 97, "unit": "%"}, {"measurement": "AML tumor growth", "setting": "AML tumor", "result": "inhibits AML tumor growth in a mouse model in a dose dependent manner"}, {"measurement": "ED50", "setting": "HCT116 (KRAS) tumor; Mus musculus, HCT-116, po, once per day by oral gavage, read-out: ED50, in vivo tumor growth", "result": 31.6, "unit": "mg/kg"}, {"measurement": "TGI compared with control", "setting": "HCT116 (KRAS) tumor; highest dose", "result": 86, "unit": "%"}, {"measurement": "ED50, in vivo tumor growth", "setting": "HCT116 (KRAS) tumor; once per day by oral gavage", "result": 31, "unit": "mg/kg"}, {"measurement": "effect on cell cycle", "setting": "cell cycle", "result": "inhibits the cell cycle"}, {"measurement": "tumor growth inhibition (TGI) across all models", "setting": "[4]", "result": "significant tumor growth inhibition"}]}
